Measurements from patent US20130210851A1, “Crystalline forms of a hexahydrofuro[3,4-c]quinoline derivative” (Boehringer Ingelheim International GmbH, priority 2011, published 2013).
Entries after “also recorded” stand apart in the source; their conditions may differ. Where two headings read alike, the source gives them in different places. Blank lines part the entries; values can stand above or below the compound they belong to.

Experiments:
Type in all cases: physicochemical
[1] = Solid state stability under harsh stress conditions
From the text: Under all applied severe stress conditions only very low or minor decomposition (Σ</=about 6% degradation impurities measured as peak area percentage from HPLC-diagrams using a standard gradient technique) can be observed.

[2] = Solubility of the saturated solution in aqueous media; conditions: thermodynamic from solid, 48 h shaking at room temperature, read-out: solubility RT - values
[3] = Intrinsic dissolution rate in aqueous media (rotating disc method); conditions: 37° C., 200 rpm
Method: The intrinsic dissolution rate of the crystalline hydrochloride salt form of (3R,9S)-4-isopropyl-7,7-dimethyl-3-(4-(trifluoromethyl)phenyl)-2′,3′,5′,6,6′,7,8,9-octahydro-3H-spiro[furo[3,4-c]quinoline-1,4′-pyran]-9-ol is determined in aqueous media covering a range of pH 1.1-7.4 using the rotating disc method which maintains a constant surface area. 5 mg drug substance is compressed to form a disc at 356.1 N for 60 s. These discs are mounted to specially designed sample holders which fit into a Sotax dissolution tester. The dissolution media (37° C.) are stirred at 200 rpm. Samples are automatically withdrawn every second minute from the dissolution vessel and assayed via UV spectrophotometry. The intrinsic dissolution rate expressed in μg/cm^2/min is calculated using the slope of the concentration versus time plot and from the linear portion of the slope of the dissolution curve, volume of dissolution medium (35 ml) and area (diameter: 2 mm) of the exposed disk.

[4] = Hygroscopic behaviour, water sorption isotherms (DVS-1); conditions: 25° C.; for hygroscopicity (in words): sorption isotherms 10% to 90% r.h.; for uptake of water: up to 90% r.h.
Method: To study the hygroscopic behaviour of this material, sorption isotherms are registered on a DVS-1 water sorption monitor from Surface Measurement Systems. Adsorption and desorption isotherms are performed at 25° C. with 10% r.h. step intervals ranging from 10% r.h. up to 90% r.h.

decomposition, sum of degradation impurities (peak area percentage from HPLC) ([1]; all stress conditions: 24 hours at 105° C., 72 hours at 60° C. and 70% rel. humid., 24 hours in a Xenotester): ≤ 6%
solid state stability (in words) ([1]; harsh stress conditions for solid state): stable in the solid state
solubility at 48 h ([2]; McIlvaine buffer, aqueous buffer, McIlvaine pH 2.2, intrinsic pH 2.0): 1600 µg/mL
solubility at 48 h ([2]; McIlvaine buffer, aqueous buffer, McIlvaine pH 3.0, intrinsic pH 3.0): 400 µg/mL
solubility at 48 h ([2]; McIlvaine buffer, aqueous buffer, McIlvaine pH 4.0, intrinsic pH 4.0): 90 µg/mL
solubility at 48 h ([2]; McIlvaine buffer, aqueous buffer, McIlvaine pH 4.5, intrinsic pH 4.6): 30 µg/mL
solubility at 48 h ([2]; McIlvaine buffer, aqueous buffer, McIlvaine pH 5.0, intrinsic pH 5.1): 3 µg/mL
solubility at 48 h ([2]; McIlvaine buffer, aqueous buffer, McIlvaine pH 6.0, intrinsic pH 6.2): < 3 µg/mL
solubility at 48 h ([2]; McIlvaine buffer, aqueous buffer, McIlvaine pH 6.8, intrinsic pH 7.0): < 3 µg/mL
solubility at 48 h ([2]; McIlvaine buffer, aqueous buffer, McIlvaine pH 7.4, intrinsic pH 7.7, determined by LC/MS): 0.26 µg/mL
solubility at 48 h ([2]; Sorensen buffer, aqueous buffer, Sorensen pH 10.0, intrinsic pH 9.6): < 3 µg/mL
solubility at 48 h ([2]; acetate buffer, aqueous buffer, Acetate pH 3.0, intrinsic pH 3.0): 200 µg/mL
solubility at 48 h ([2]; acetate buffer, aqueous buffer, Acetate pH 4.0, intrinsic pH 4.2): 60 µg/mL
solubility at 48 h ([2]; acetate buffer, aqueous buffer, Acetate pH 5.0, intrinsic pH 5.3): 6 µg/mL
solubility at 48 h ([2]; simulated gastric fluid, 0.01N HCl, intrinsic pH 1.9): 1900 µg/mL
solubility at 48 h ([2]; simulated gastric fluid, 0.1N HCl, intrinsic pH 0.9): 4100 µg/mL
solubility at 48 h ([2]; FaSSIF (Fasted State Simulated Intestinal), intrinsic pH 6.5): 20 µg/mL
solubility at 48 h ([2]; FeSSIF (Fed State Simulated Intestinal), intrinsic pH 5.0): 30 µg/mL
solubility at 48 h ([2]; water, intrinsic pH 1.6): 3100 µg/mL
dissolution rate ([3]; 0.1N HCl): 230 μg/cm^2/min
dissolution rate ([3]; pH 2.2 (McIlvaine)): 250 μg/cm^2/min
dissolution rate ([3]; pH 3.0 (McIlvaine)): 60 μg/cm^2/min
dissolution rate ([3]; pH 4.0 (McIlvaine)): 10 μg/cm^2/min
dissolution rate ([3]; pH 4.5 (McIlvaine)): 10 μg/cm^2/min
dissolution rate ([3]; water): 10 μg/cm^2/min
Structure (SMILES): CC(C)c1nc2c(c3c1[C@@H](c1ccc(C(F)(F)F)cc1)OC31CCOCC1)[C@@H](O)CC(C)(C)C2.Cl [crystalline hydrochloride salt form, Hydrogen Chloride Salt of (3R,9S)-4-isopropyl-7,7-dimethyl-3-(4-(trifluoromethyl)phenyl)-2′,3′,5′,6,6′,7,8,9-octahydro-3H-spiro[furo[3,4-c]quinoline-1,4′-pyran]-9-ol]
hygroscopicity (in words) [4]: not hygroscopic; also recorded: non-hygroscopic

hygroscopicity (in words) [4]: not hygroscopic
uptake of water [4]: about 0.2%
Structure (SMILES): CC(C)c1nc2c(c3c1[C@@H](c1ccc(C(F)(F)F)cc1)OC31CCOCC1)[C@@H](O)CC(C)(C)C2 [compound of formula (I), (3R,9S)-4-isopropyl-7,7-dimethyl-3-(4-(trifluoromethyl)phenyl)-2′,3′,5′,6,6′,7,8,9-octahydro-3H-spiro[furo[3,4-c]quinoline-1,4′-pyran]-9-ol]

hygroscopicity (in words) [4]: not hygroscopic
uptake of water [4]: about 0.9%
Structure (SMILES): Br.CC(C)c1nc2c(c3c1[C@@H](c1ccc(C(F)(F)F)cc1)OC31CCOCC1)[C@@H](O)CC(C)(C)C2 [crystalline hydrobromide salt form, Hydrogen Bromide Salt of (3R,9S)-4-isopropyl-7,7-dimethyl-3-(4-(trifluoromethyl)phenyl)-2′,3′,5′,6,6′,7,8,9-octahydro-3H-spiro[furo[3,4-c]quinoline-1,4′-pyran]-9-ol]
